Experimental data as given in patent US12187684B2, “Benzimidazole derivatives as modulators of retinoid-related orphan receptor gamma (RORγ) and pharmaceutical use thereof” (Jiangsu Hengrui Medicine Co., Ltd., priority 2018, dated 2025).

Tests used:
RORγ LBD-GST tagged = target: T1, RORγ LBD-GST tagged (Homo sapiens, UniProt P51449); assay: LanthaScreen TR-FRET RORγ coactivator assay; assay type: biochemical; conditions: Fluorescein-D22 coactivator peptide, 1 hour room temperature
T1 construct: RORγ LBD-GST tagged (Cat No. RORC-114H, Creative Biomart); purchased Creative Biomart RORC-114H
T1 sequence (P51449 269-508 limits assumed): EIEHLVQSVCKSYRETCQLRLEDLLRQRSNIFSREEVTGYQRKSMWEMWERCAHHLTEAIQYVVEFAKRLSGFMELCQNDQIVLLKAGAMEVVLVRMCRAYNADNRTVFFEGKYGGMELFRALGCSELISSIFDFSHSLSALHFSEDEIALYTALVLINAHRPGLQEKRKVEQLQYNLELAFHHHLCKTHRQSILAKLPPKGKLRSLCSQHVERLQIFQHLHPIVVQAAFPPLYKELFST
Method in brief: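 GST-tagged RORγ LBD (25 ng/reaction) was incubated in coregulator buffer D with 5 mM DTT and compound (top 3 μM, 7-fold steps, 7 doses), then with a mix containing 0.6 μM fluorescein-D22 peptide and 8 nM Tb anti-GST antibody. After 1 h at room temperature in the dark, 520/495 nm TR-FRET was read. IC50 came from log concentration versus percent inhibition.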

[1] = system: IL-17 production, human PBMC cells; assay: IL-17 production assay using human PBMC; assay type: cell-based; conditions: human PBMC stimulated by cytostim for 3 days, IL-17 ELISA of supernatant
Description: Test Example 2. IL-17 Production Assay Using Human PBMC
• 1. Human PBMC cells (Cat No. 70025.1, Zenbio) • 2. Lymphocyte medium (Cat No. LYMPH-1, Zenbio) • 3. TexMACS (Cat No. 130-097-196, Miltenyi) • 4. Cytostim-human (Cat No. 1130-092-173, Miltenyi) • 5. Human IL-17 ELISA (Cat No. D1700, R&D systems) • 6. Tecan Infinite M1000 plate reader (Tecan)
Experimental Procedure for IL-17 Production Assay
Cryopreserved peripheral blood human mononuclear cells (PBMCs) were rapidly thawed in warmed Lymphocyte media, and centrifuged cell suspension at 1000 rpm for 10 minutes. The supernatant was removed, and the cell pellets were gently resuspended in TexMACS media.
Human PBMC cells in TexMACS media were plated at 1×10^5 each well in triplicate. The test compounds at various concentrations or vehicle control (<0.5% DMSO) were added into cell culture. The cells were stimulated by cytostim (10 μL/mL) for 3 days in a humidified, 5% CO2 incubator at 37° C.
After incubation, the cell culture supernatant was harvested, and then removed particulates by centrifugation. Human IL-17 in the supernatant was measured using human IL-17 ELISA kit according to the manufacturer's protocol. IC50 values were determined using GraphPad Prism by plotting the compounds concentration versus percent inhibition.

| SMILES | IC50 (RORγ LBD-GST tagged) [µM] | IC50 [1] [µM] | IC50 ([1]; Homo sapiens, PBMC, 72 h) [µM] |
| --- | --- | --- | --- |
| CCS(=O)(=O)c1ccc(C(CCO)c2nc3c(Cl)c(N4CCC(F)(F)CC4)c(Cl)cc3[nH]2)cc1 (single isomer, unassigned) [the longer retention time of 139 and 140, 3-(4,6-dichloro-5-(4,4-difluoropiperidin-1-yl)-1H-benzo[d]imidazol-2-yl)-3-(4-(ethylsulfonyl)phenyl)propan-1-ol] | 0.035 | 0.026 |  |
| CCS(=O)(=O)c1ccc(C(CC(N)=O)c2nc3c(Cl)c(N4CCC(F)(F)CC4)c(Cl)cc3[nH]2)cc1 (single isomer, unassigned) [the longer retention time of 146 and 147, 3-(4,6-dichloro-5-(4,4-difluoropiperidin-1-yl)-1H-benzo[d]imidazol-2-yl)-3-(4-(ethylsulfonyl)phenyl)propanamide] | 0.004 | 0.014 |  |
| CC(C)Oc1ccccc1-c1cc2nc(C(CC(N)=O)c3ccc(S(=O)(=O)CC4CC4)cc3)[nH]c2cc1Cl (single isomer, unassigned) [the longer retention time of 148 and 149, 3-(6-chloro-5-(2-isopropoxyphenyl)-1H-benzo[d]imidazol-2-yl)-3-(4-((cyclopropylmethyl)sulfonyl)phenyl)propanamide] | 0.083 | 0.022 |  |
| CC(C)Oc1ccccc1-c1cc2nc(C(CCO)c3ccc(S(=O)(=O)CC4CC4)cc3)[nH]c2cc1Cl (single isomer, unassigned) [the longer retention time of 150 and 151, 3-(6-chloro-5-(2-isopropoxyphenyl)-1H-benzo[d]imidazol-2-yl)-3-(4-((cyclopropylmethyl)sulfonyl)phenyl)propan-1-ol] | 0.026 | 0.031 |  |
| NC(=O)CC(c1ccc(S(=O)(=O)CC2CC2)cc1)c1nc2cc(-c3ccccc3OC(F)F)c(Cl)cc2[nH]1 (single isomer, unassigned) [the longer retention time of 152 and 153, 3-(6-chloro-5-(2-(difluoromethoxy)phenyl)-1H-benzo[d]imidazol-2-yl)-3-(4-((cyclopropylmethyl)sulfonyl)phenyl)propanamide] | 0.013 | 0.01 |  |
| O=S(=O)(CC1CC1)c1ccc(C(CCO)c2nc3cc(-c4ccccc4OC(F)F)c(Cl)cc3[nH]2)cc1 (single isomer, unassigned) [the longer retention time of 155 and 156, 3-(6-chloro-5-(2-(difluoromethoxy)phenyl)-1H-benzo[d]imidazol-2-yl)-3-(4-((cyclopropylmethyl)sulfonyl)phenyl)propan-1-ol] | 0.074 | 0.026 |  |
| O=S(=O)(CC1CC1)c1ccc(C(CCO)c2nc3cc(Cl)c(N4CCC(F)(F)CC4)c(Cl)c3[nH]2)cc1 (single isomer, unassigned) [the longer retention time of 160 and 161, 3-(4-((cyclopropylmethyl)sulfonyl)phenyl)-3-(5,7-dichloro-6-(4,4-difluoropiperidin-1-yl)-1H-benzo[d]imidazol-2-yl)propan-1-ol] | 0.003 | 0.004 |  |
| NC(=O)CC(c1ccc(S(=O)(=O)CC2CC2)cc1)c1nc2cc(Cl)c(N3CCC(F)(F)CC3)c(Cl)c2[nH]1 (single isomer, unassigned) [the longer retention time of 162 and 163, 3-(4-((cyclopropylmethyl)sulfonyl)phenyl)-3-(5,7-dichloro-6-(4,4-difluoropiperidin-1-yl)-1H-benzo[d]imidazol-2-yl)propanamide] | 0.31 | 0.029 |  |
| CCS(=O)(=O)c1ccc(Cc2nc3c(Cl)c(-c4ccccc4C(F)(F)F)c(Cl)cc3[nH]2)cc1 [Example 3, 4,6-dichloro-2-(4-(ethylsulfonyl)benzyl)-5-(2-(trifluoromethyl)phenyl)-1H-benzo[d]imidazole] | 0.373 |  | 0.052 |
| CCS(=O)(=O)c1ccc(C(O)c2nc3c(Cl)c(-c4ccccc4OC(F)(F)F)c(Cl)cc3[nH]2)cc1 (stereo not shown) [Example 5, (4,6-dichloro-5-(2-(trifluoromethoxy)phenyl)-1H-benzo[d]imidazol-2-yl)(4-(ethylsulfonyl)phenyl)methanol] | 0.626 |  | 0.025 |
| CCS(=O)(=O)c1ccc(C(O)c2nc3c(Cl)c(-c4ccccc4OC)c(Cl)cc3[nH]2)cc1 (stereo not shown) [Example 7, (4,6-dichloro-5-(2-methoxyphenyl)-1H-benzo[d]imidazol-2-yl)(4-(ethylsulfonyl)phenyl)methanol] | 0.086 |  | 0.223 |
| CCS(=O)(=O)c1ccc(Cc2nc3c(Cl)c(-c4ccccc4OCOC)c(Cl)cc3[nH]2)cc1 [Example 13, 4,6-dichloro-2-(4-(ethylsulfonyl)benzyl)-5-(2-(methoxymethoxy)phenyl)-1H-benzo[d]imidazole] | 0.675 |  | 0.082 |
| CCS(=O)(=O)c1ccc(Cc2nc3c(Cl)c(-c4ccccc4OCCOC)c(Cl)cc3[nH]2)cc1 [Example 19, 4,6-dichloro-2-(4-(ethylsulfonyl)benzyl)-5-(2-(2-methoxyethoxy)phenyl)-1H-benzo[d]imidazole] | 0.052 |  | 0.343 |
| CCS(=O)(=O)c1ccc(C(O)c2nc3c(Cl)c(-c4ccccc4OCCOC)c(Cl)cc3[nH]2)cc1 (stereo not shown) [Example 21, (4,6-dichloro-5-(2-(2-methoxyethoxy)phenyl)-1H-benzo[d]imidazol-2-yl)(4-(ethylsulfonyl)phenyl)methanol] | 0.083 |  | 0.453 |
| CCS(=O)(=O)c1ccc(C(O)c2nc3c(Cl)c(-c4ccccc4C#N)c(Cl)cc3[nH]2)cc1 (stereo not shown) [Example 23, 2-(4,6-dichloro-2-((4-(ethylsulfonyl)phenyl)(hydroxy)methyl)-1H-benzo[d]imidazol-5-yl)benzonitrile] | 0.318 |  | 0.075 |
| CCS(=O)(=O)c1ccc(Cc2nc3c(Cl)c(-c4ccccc4OCC(F)(F)F)c(Cl)cc3[nH]2)cc1 [Example 31, 4,6-dichloro-2-(4-(ethylsulfonyl)benzyl)-5-(2-(2,2,2-trifluoroethoxy)phenyl)-1H-benzo[d]imidazole] | 0.01 |  | 0.011 |

More lines, main results first:

| IC50 (RORγ LBD-GST tagged) [µM] | SMILES | IC50 [1] [µM] | IC50 ([1]; Homo sapiens, PBMC, 72 h) [µM] |
| --- | --- | --- | --- |
| 0.16 | CCS(=O)(=O)c1ccc(C(CO)c2nc3c(Cl)c(-c4ccccc4OC(F)(F)F)c(Cl)cc3[nH]2)cc1 (stereo not shown) [Example 4, 2-(4,6-dichloro-5-(2-(trifluoromethoxy)phenyl)-1H-benzo[d]imidazol-2-yl)-2-(4-(ethylsulfonyl)phenyl)ethanol] |  | 0.053 |
| 0.003 | CCS(=O)(=O)c1ccc(C(CO)c2nc3c(Cl)c(-c4ccccc4OC)c(Cl)cc3[nH]2)cc1 (stereo not shown) [Example 6, 2-(4,6-dichloro-5-(2-methoxyphenyl)-1H-benzo[d]imidazol-2-yl)-2-(4-(ethylsulfonyl)phenyl)ethanol] |  | 0.022 |
| 0.475 | CCS(=O)(=O)c1ccc(C(CO)c2nc3c(Cl)c(-c4ccccc4OC(C)C)c(Cl)cc3[nH]2)cc1 (stereo not shown) [Example 9, 2-(4,6-dichloro-5-(2-isopropoxyphenyl)-1H-benzo[d]imidazol-2-yl)-2-(4-(ethylsulfonyl)phenyl)ethanol] |  | 0.01 |
| 0.086 | CCS(=O)(=O)c1ccc(C(CO)c2nc3c(Cl)c(-c4ccccc4OCOC)c(Cl)cc3[nH]2)cc1 (stereo not shown) [Example 14, 2-(4,6-dichloro-5-(2-methoxymethoxyphenyl)-1H-benzo[d]imidazol-2-yl)-2-(4-(ethylsulfonyl)phenyl)ethanol] |  | 0.022 |
| 0.013 | CCS(=O)(=O)c1ccc(C(CO)c2nc3c(Cl)c(-c4ccccc4OCCOC)c(Cl)cc3[nH]2)cc1 (stereo not shown) [Example 20, 2-(4,6-dichloro-5-(2-(2-methoxyethoxy)phenyl)-1H-benzo[d]imidazol-2-yl)-2-(4-(ethylsulfonyl)phenyl)ethanol] |  | 0.056 |
| 0.269 | CCS(=O)(=O)c1ccc(C(CO)c2nc3c(Cl)c(-c4ccccc4OC(F)F)c(Cl)cc3[nH]2)cc1 (stereo not shown) [Example 29, 2-(4,6-dichloro-5-(2-(difluoromethoxy)phenyl)-1H-benzo[d]imidazol-2-yl)-2-(4-(ethylsulfonyl)phenyl)ethanol] |  | 0.009 |
| 0.062 | CCS(=O)(=O)c1ccc(C(O)c2nc3c(Cl)c(-c4ccccc4OC(F)F)c(Cl)cc3[nH]2)cc1 (stereo not shown) [Example 30, (4,6-dichloro-5-(2-(difluoromethoxy)phenyl)-1H-benzo[d]imidazol-2-yl)(4-(ethylsulfonyl)phenyl)methanol] |  | 0.007 |
